The values that follow are results of earlier work, collected in patent US6576227B1, “Peroxidase-activating oral compositions” (Oraceutical Innovative Properties, LLC, priority 1995, dated 2003).

One data set concerns cellular DNA. The conditions noted are these: elevated concentrations (greater than about 0.1 percent or about 29 millimoles per liter).
The conditions of data set [1]: 20° C.

For `OO` [hydrogen peroxide], the “mutagenicity and cellular DNA damage” value in the data set on cellular DNA is reported as “mutagenic”.
Consider `NC(N)=O.OO` [Carbamide peroxide], for which the water solubility in data set [1] is listed as 800 grams per liter. In addition, the “concentration of saturated solution” value in data set [1] (water) is reported as 44.4%. For the same compound, the “pH upon dissolution, 1% solution” value (1% solution in water) is listed as “approximately 4.05”. Moreover, the “pH, saturated solution” value (saturated solution in water) is on record as “approximately 3.40”.
